Test results reported in PMC10653547, “Synergistic effect of two antimicrobial peptides, BP203 and MAP-0403 J-2 with conventional antibiotics against colistin-resistant Escherichia coli and Klebsiella pneumoniae clinical isolates” (PLOS ONE, 2023).

Legend:
[1] = system: colistin-resistant E. coli clinical isolates; assay: Checkerboard assay for synergy testing; format: cell-based, Escherichia coli; conditions: checkerboard Ceftazedime+BP203
Method: (§1) The synergistic activities of various two-antimicrobial combinations against colistin-resistant E. coli and K. pneumoniae isolates were evaluated using the checkerboard assay, which was performed in 96-well plates. […] Two-fold serial dilutions of peptides and antibiotics were independently prepared in CAMHB. Afterward, a mixture of different concentrations of the antibiotics and peptides was added to the wells of the microplates. Antibiotics and peptides were also dispended alone in the first row and the first column, respectively. Bacterial inoculum was added to the 96-well plate to achieve a final concentration of 5 × 10^5 CFU/mL. Then, plates were incubated at 37 °C for 20–24 h. MICs were recorded as the minimum concentration of antimicrobial agents without bacterial growth. The interaction between the antimicrobials was determined by calculating the fractional inhibitory concentration index (FICI) according to the formula: FICI = FIC(drug A) + FIC(drug B), where FIC = the MIC of the drug when in the combination/MIC of drug tested individually.

[2] = system: colistin-resistant K. pneumoniae clinical isolates; assay: Checkerboard assay for synergy testing; format: cell-based, Klebsiella pneumoniae
Method: as §1

[3] = isolate KP-01, checkerboard Ceftazedime+BP203
[4] = isolate KP-02, checkerboard Ceftazedime+BP203
[5] = isolate KP-03, checkerboard Ceftazedime+BP203
[6] = isolate KP-04, checkerboard Ceftazedime+BP203
[7] = isolate KP-05, checkerboard Ceftazedime+BP203
[8] = isolate KP-06, checkerboard Ceftazedime+BP203
[9] = isolate KP-07, checkerboard Ceftazedime+BP203
[10] = isolate KP-08, checkerboard Ceftazedime+BP203
[11] = isolate KP-09, checkerboard Ceftazedime+BP203
[12] = isolate KP-10, checkerboard Ceftazedime+BP203
[13] = checkerboard BP203 x meropenem, KP-01
[14] = checkerboard BP203 x meropenem, KP-02
[15] = checkerboard BP203 x meropenem, KP-03
[16] = checkerboard BP203 x meropenem, KP-04
[17] = checkerboard BP203 x meropenem, KP-05
[18] = checkerboard BP203 x meropenem, KP-06
[19] = checkerboard BP203 x meropenem, KP-08
[20] = checkerboard BP203 x meropenem, KP-09
[21] = checkerboard BP203 x meropenem, KP-10
[22] = checkerboard MAP-0403 J-2 x meropenem, KP-01
[23] = checkerboard MAP-0403 J-2 x meropenem, KP-02
[24] = checkerboard MAP-0403 J-2 x meropenem, KP-03
[25] = checkerboard MAP-0403 J-2 x meropenem, KP-05
[26] = checkerboard MAP-0403 J-2 x meropenem, KP-06
[27] = checkerboard MAP-0403 J-2 x meropenem, KP-07
[28] = checkerboard MAP-0403 J-2 x meropenem, KP-08
[29] = checkerboard MAP-0403 J-2 x meropenem, KP-09
[30] = checkerboard MAP-0403 J-2 x meropenem, KP-10

Structure (SMILES): CC(C)(O/N=C(\C(=O)N[C@@H]1C(=O)N2C(C(=O)[O-])=C(C[n+]3ccccc3)CS[C@H]12)c1csc(N)n1)C(=O)O [Ceftazedime]
- MIC alone ([1]; isolate EC-01): 8 µg/mL
- MIC combination ([1]; isolate EC-01): 4 µg/mL
- MIC alone ([1]; isolate EC-02): 16 µg/mL
- MIC combination ([1]; isolate EC-02): 4 µg/mL
- MIC alone ([1]; isolate EC-03): 32 µg/mL
- MIC combination ([1]; isolate EC-03): 8 µg/mL
- MIC alone ([1]; isolate EC-04): 32 µg/mL
- MIC combination ([1]; isolate EC-04): 8 µg/mL
- MIC alone ([1]; isolate EC-05): 1 µg/mL
- MIC combination ([1]; isolate EC-05): 0.25 µg/mL
- MIC alone ([1]; isolate EC-06): 16 µg/mL
- MIC combination ([1]; isolate EC-06): 0.5 µg/mL
- MIC alone ([1]; isolate EC-07): 16 µg/mL
- MIC combination ([1]; isolate EC-07): 8 µg/mL
- MIC alone ([1]; isolate EC-08): 0.5 µg/mL
- MIC combination ([1]; isolate EC-08): 0.25 µg/mL
- MIC alone ([1]; isolate EC-09): 16 µg/mL
- MIC combination ([1]; isolate EC-09): 8 µg/mL
- MIC alone ([1]; isolate EC-10): 8 µg/mL
- MIC combination ([1]; isolate EC-10): 4 µg/mL
- MIC alone [2, 3]: 128 µg/mL
- MIC combination [2, 3]: 8 µg/mL
- MIC alone [2, 4]: 128 µg/mL
- MIC combination [2, 4]: 16 µg/mL
- MIC alone [2, 5]: 512 µg/mL
- MIC combination [2, 5]: 128 µg/mL
- MIC alone [2, 6]: 512 µg/mL
- MIC combination [2, 6]: 512 µg/mL
- MIC alone [2, 7]: 512 µg/mL
- MIC combination [2, 7]: 4 µg/mL
- MIC alone [2, 8]: 256 µg/mL
- MIC combination [2, 8]: 16 µg/mL
- MIC alone [2, 9]: 1020 µg/mL
- MIC combination [2, 9]: 512 µg/mL
- MIC alone [2, 10]: 512 µg/mL
- MIC combination [2, 10]: 64 µg/mL
- MIC alone [2, 11]: 512 µg/mL
- MIC combination [2, 11]: 128 µg/mL
- MIC alone [2, 12]: 512 µg/mL
- MIC combination [2, 12]: 32 µg/mL

Structure (SMILES): C[C@@H](O)[C@H]1C(=O)N2C(C(=O)O)=C(S[C@@H]3CN[C@H](C(=O)N(C)C)C3)[C@H](C)[C@H]12 [Meropenem, meropenem]
- MIC alone [2, 13]: 8 µg/mL
- MIC combination [2, 13]: 2 µg/mL
- MIC alone [2, 14]: 16 µg/mL
- MIC combination [2, 14]: 4 µg/mL
- MIC alone [2, 15]: 64 µg/mL
- MIC combination [2, 15]: 16 µg/mL
- MIC alone [2, 16]: 256 µg/mL
- MIC combination [2, 16]: 64 µg/mL
- MIC alone [2, 17]: 64 µg/mL
- MIC combination [2, 17]: 16 µg/mL
- MIC alone [2, 18]: 16 µg/mL
- MIC combination [2, 18]: 4 µg/mL
- MIC combination ([2]; checkerboard BP203 x meropenem, KP-07): 32 µg/mL
- MIC alone [2, 19]: 64 µg/mL
- MIC combination [2, 19]: 8 µg/mL
- MIC alone [2, 20]: 64 µg/mL
- MIC combination [2, 20]: 16 µg/mL
- MIC alone [2, 21]: 16 µg/mL
- MIC combination [2, 21]: 4 µg/mL
- MIC alone [2, 22]: 4 µg/mL
- MIC combination [2, 22]: 2 µg/mL
- MIC alone [2, 23]: 8 µg/mL
- MIC combination [2, 23]: 8 µg/mL
- MIC alone [2, 24]: 32 µg/mL
- MIC combination [2, 24]: 0.25 µg/mL
- MIC alone [2, 25]: 32 µg/mL
- MIC combination [2, 25]: 32 µg/mL
- MIC alone [2, 26]: 8 µg/mL
- MIC combination [2, 26]: 4 µg/mL
- MIC alone [2, 27]: 64 µg/mL
- MIC combination [2, 27]: 64 µg/mL
- MIC alone [2, 28]: 64 µg/mL
- MIC combination [2, 28]: 64 µg/mL
- MIC alone [2, 29]: 64 µg/mL
- MIC combination [2, 29]: 32 µg/mL
- MIC alone [2, 30]: 16 µg/mL
- MIC combination [2, 30]: 8 µg/mL
